{"source": "patent US3945993A", "about": "“Derivatives of polyene macrolide antibiotics” (Rutgers Research and Educational Foundation, priority 1971, dated 1976)", "key": {"[1]": {"assay": "Water solubility of acid salts of the esters by the dry weight method", "format": "physicochemical", "settings": "acid addition salts (hydrochlorides); for solubility: water"}, "[2]": {"assay": "Qualitative solubility of esters and salts in water and organic solvents", "format": "physicochemical"}, "[3]": {"assay": "True water solubility of base polyene antibiotics by DMSO dilution and ultra-violet spectrum", "format": "physicochemical", "settings": "for solubility: water"}, "Saccharomyces cerevisiae": {"tested_on": "Saccharomyces cerevisiae", "assay": "Minimum inhibitory concentration, in vitro antifungal potency (Saccharomyces cerevisiae)", "format": "cell-based", "settings": "for MIC: read-out: Min. Inhibitory Conc.", "source_text": "(§1) As indicated, numerous tests have shown that the antimicrobial activity of the present derivatives, both in the immediate ester form of esterification and in the final water-soluble salt form, is substantially the same as that of the base antibiotics. […] In the table the numerical values represent minimum inhibitory concentration and thus the lower the value, the greater the activity in inhibiting growth of the organism."}, "Mucor rouxii": {"tested_on": "Mucor rouxii", "assay": "Minimum inhibitory concentration (Mucor rouxii)", "format": "cell-based", "settings": "Amylomyces rouxii", "source_text": "as §1\n(§2) In the case of amphotericin B this set of tests was extended to other microorganisms: the minimum inhibitory concentrations in micrograms per ml. for amphotericin B and its methyl ester hydrochloride respectively were 0.5 and 0.5 against Candida albicans, 0.5 and 0.5 against Mucor rouxii, and 0.20 and 0.25 against Aspergillus niger."}, "[4]": {"assay": "True solution in water judged by ultra-violet spectrum (FIG. 5)", "format": "physicochemical", "settings": "7 micrograms per ml. in water", "source_text": "The true solubility of the present derivatives is further illustrated by FIG. 5, where curve A is the ultraviolet spectrum for amphotericin B methyl ester hydrochloride in water, 7 micrograms per ml., and curve B is a like spectrum for the same concentration of the base amphotericin B in water."}, "Aspergillus niger": {"tested_on": "Aspergillus niger", "assay": "Minimum inhibitory concentration (Aspergillus niger)", "format": "cell-based", "source_text": "as §1, §2"}, "Candida albicans": {"tested_on": "Candida albicans", "assay": "Minimum inhibitory concentration (Candida albicans)", "format": "cell-based", "source_text": "as §1, §2"}, "[5]": {"tested_on": "Saccharomyces cerevisiae, Candida albicans and Aspergillus niger", "assay": "Standard in vitro tests of antimicrobial activity of derivative and base against representative organisms", "format": "cell-based", "settings": "result in words", "source_text": "as §1"}, "[6]": {"settings": "base antibiotics, calculated from UV after ten fold dilution of saturated water solution with dimethyl sulfoxide"}}, "note": "Counter-ions that a name gives are not always drawn. Like-named read-outs stand apart in the source and are kept apart here."}
{"molecule": "CCOC(=O)[C@H]1[C@@H]2C[C@@H](O[C@@H]3O[C@H](C)[C@@H](O)[C@H](N)[C@@H]3O)/C=C/C=C/C=C/C=C/C=C/C=C/C=C/[C@H](C)[C@@H](O)[C@@H](C)[C@H](C)OC(=O)C[C@H](O)C[C@H](O)CC[C@@H](O)[C@H](O)C[C@H](O)C[C@](O)(C[C@@H]1O)O2", "note": "[Amphotericin B ethyl ester hydrochloride, amphotericin B ethyl ester hydrochloride]", "values": [{"measurement": "solubility", "setting": "[1]", "result": "> 75", "unit": "mg/mL"}]}
{"molecule": "COC(=O)[C@H]1[C@@H]2C[C@@H](O[C@@H]3O[C@H](C)[C@@H](O)[C@H](N)[C@@H]3O)/C=C/C=C/C=C/C=C/C=C/C=C/C=C/[C@H](C)[C@@H](O)[C@@H](C)[C@H](C)OC(=O)C[C@H](O)C[C@H](O)CC[C@@H](O)[C@H](O)C[C@H](O)C[C@](O)(C[C@@H]1O)O2", "note": "[Amphotericin B methyl ester, amphotericin B methyl ester]", "values": [{"measurement": "solubility in ethyl acetate", "setting": "[2]; ethyl acetate", "result": "slightly soluble"}, {"measurement": "solubility in organic solvents", "setting": "[2]; methyl alcohol, ethyl alcohol, tetrahydrofurane, dimethyl formamide and dimethyl sulfoxide", "result": "soluble"}, {"measurement": "solubility in petroleum ether and ethyl ether", "setting": "[2]; petroleum ether and ethyl ether", "result": "insoluble"}, {"measurement": "solubility in water (in words)", "setting": "[2]; water", "result": "slightly soluble"}]}
{"molecule": "C[C@@H]1[C@H](O)[C@@H](C)/C=C/C=C/C=C/C=C/C=C/C=C/C=C/[C@H](O[C@@H]2O[C@H](C)[C@@H](O)[C@H](N)[C@@H]2O)C[C@@H]2O[C@](O)(C[C@@H](O)C[C@@H](O)[C@H](O)CC[C@@H](O)C[C@@H](O)CC(=O)O[C@H]1C)C[C@H](O)[C@H]2C(=O)O", "note": "[Amphotericin B, amphotericin B, reference compound]", "values": [{"measurement": "solubility", "setting": "[3]; base antibiotics, calculated from UV after ten fold dilution of saturated water solution with dimethyl sulfoxide, read-out: Solubility in water", "result": 0.0017, "unit": "mg/mL"}, {"measurement": "MIC", "setting": "Saccharomyces cerevisiae", "result": 0.25, "unit": "µg/mL"}, {"measurement": "MIC", "setting": "Mucor rouxii", "result": 0.5, "unit": "µg/mL"}, {"measurement": "state in water by ultraviolet spectrum", "setting": "[4]", "result": "did not dissolve and was therefore a mere dispersion"}, {"measurement": "MIC", "setting": "Aspergillus niger", "result": 0.2, "unit": "µg/mL"}]}
{"molecule": "C[C@@H]1[C@H](O)[C@@H](C)/C=C/C=C/CC/C=C/C=C/C=C/C=C/C(O[C@H]2O[C@H](C)[C@@H](O)[C@H](N)[C@@H]2O)CC2O[C@](O)(CC(O)C(O)CCC(O)CC(O)CC(O)CC(=O)O[C@H]1C)CC(O)C2C(=O)O", "note": "(some centres unmarked) [Nystatin, reference compound]", "values": [{"measurement": "Solubility in water", "setting": "[3]; [6]", "result": 0.039, "unit": "mg/mL"}, {"measurement": "Min. Inhibitory Conc.", "setting": "Saccharomyces cerevisiae; in vitro", "result": 3.00, "unit": "micrograms/ml."}]}
{"molecule": "COC(=O)C1C(O)CC2(O)CC(O)CC3OC3/C=C/C(=O)OC(C)C/C=C/C=C/C=C/C=C/C(OC3OC(C)C(O)C(N)C3O)CC1O2", "note": "(centres unmarked) [Pimaricin methyl ester hydrochloride]", "values": [{"measurement": "solubility", "setting": "[1]", "result": "> 80", "unit": "mg/mL"}]}
{"molecule": "COC(=O)C1C(O)CC2(O)CC(O)CC3OC3/C=C/C(=O)OC(C)C/C=C/C=C/C=C/C=C/C(OC3OC(C)C(O)C(N)C3O)CC1O2", "note": "(centres unmarked) [Pimaricin methyl ester]", "values": [{"measurement": "MIC", "setting": "Saccharomyces cerevisiae; in vitro", "result": 4, "unit": "µg/mL"}]}
{"molecule": "C[C@@H]1C/C=C/C=C/C=C/C=C/[C@H](O[C@@H]2O[C@H](C)[C@@H](O)[C@H](N)[C@@H]2O)C[C@@H]2O[C@](O)(C[C@@H](O)C[C@H]3O[C@@H]3/C=C/C(=O)O1)C[C@H](O)[C@H]2C(=O)O", "note": "[Pimaricin, reference compound]", "values": [{"measurement": "solubility", "setting": "[3]", "result": 0.052, "unit": "mg/mL"}, {"measurement": "MIC", "setting": "Saccharomyces cerevisiae; in vitro", "result": 3.5, "unit": "µg/mL"}]}
{"molecule": "COC(=O)[C@H]1[C@@H]2C[C@@H](O[C@@H]3O[C@H](C)[C@@H](O)[C@H](N)[C@@H]3O)/C=C/C=C/C=C/C=C/C=C/C=C/C=C/[C@H](C)[C@@H](O)[C@@H](C)[C@H](C)OC(=O)C[C@H](O)C[C@H](O)CC[C@@H](O)[C@H](O)C[C@H](O)C[C@](O)(C[C@@H]1O)O2", "note": "[amphotericin B methyl ester hydrochloride]", "values": [{"measurement": "MIC", "setting": "Saccharomyces cerevisiae", "result": 0.25, "unit": "µg/mL"}, {"measurement": "MIC", "setting": "Mucor rouxii", "result": 0.5, "unit": "µg/mL"}, {"measurement": "state in water by ultraviolet spectrum", "setting": "[4]", "result": "true solution in water"}, {"measurement": "Solubility in water", "setting": "[1]; hydrochloride", "result": "> 75", "unit": "mg/mL"}, {"measurement": "solubility", "setting": "[1]", "result": "> 75", "unit": "mg/mL"}, {"measurement": "MIC", "setting": "Aspergillus niger", "result": 0.25, "unit": "µg/mL"}, {"measurement": "MIC", "setting": "Candida albicans", "result": 0.5, "unit": "µg/mL"}, {"measurement": "antimicrobial activity compared with the base antibiotic", "setting": "[5]", "result": "very substantial antimicrobial activity, essentially the same, i.e., quantitatively, as the base antibiotic"}]}
{"molecule": "Candicidin [reference compound]", "values": [{"measurement": "Solubility in water", "setting": "[3]; [6]", "result": 0.032, "unit": "mg/mL"}, {"measurement": "Min. Inhibitory Conc.", "setting": "Saccharomyces cerevisiae; in vitro", "result": 0.020, "unit": "micrograms/ml."}]}
{"molecule": "Candicidin methyl ester hydrochloride", "values": [{"measurement": "Min. Inhibitory Conc.", "setting": "Saccharomyces cerevisiae; in vitro", "result": 0.025, "unit": "micrograms/ml."}, {"measurement": "Solubility in water", "setting": "[1]", "result": "> 20.0", "unit": "mg/mL"}]}
{"molecule": "Candidin", "values": [{"measurement": "Solubility in water", "setting": "[3]; [6]", "result": 0.116, "unit": "mg/mL"}]}
{"molecule": "Candidin methyl ester hydrochloride", "values": [{"measurement": "Solubility in water", "setting": "[1]", "result": "> 50.0", "unit": "mg/mL"}]}
{"molecule": "Candimycin [reference compound]", "values": [{"measurement": "Min. Inhibitory Conc.", "setting": "Saccharomyces cerevisiae; in vitro", "result": 0.025, "unit": "micrograms/ml."}]}
{"molecule": "Candimycin methyl ester", "values": [{"measurement": "Min. Inhibitory Conc.", "setting": "Saccharomyces cerevisiae; in vitro", "result": 0.025, "unit": "micrograms/ml."}]}
{"molecule": "Hamycin", "values": [{"measurement": "Solubility in water", "setting": "[3]; [6]", "result": 0.032, "unit": "mg/mL"}]}
{"molecule": "Hamycin methyl ester hydrochloride", "values": [{"measurement": "Solubility in water", "setting": "[1]", "result": "> 20.0", "unit": "mg/mL"}]}
{"molecule": "Mediocidin [reference compound]", "values": [{"measurement": "Solubility in water", "setting": "[3]; [6]", "result": 0.072, "unit": "mg/mL"}, {"measurement": "Min. Inhibitory Conc.", "setting": "Saccharomyces cerevisiae; in vitro", "result": 0.035, "unit": "micrograms/ml."}]}
{"molecule": "Mediocidin methyl ester", "values": [{"measurement": "Min. Inhibitory Conc.", "setting": "Saccharomyces cerevisiae; in vitro", "result": 0.030, "unit": "micrograms/ml."}]}
{"molecule": "Nystatin methyl ester", "values": [{"measurement": "Min. Inhibitory Conc.", "setting": "Saccharomyces cerevisiae; in vitro", "result": 4.00, "unit": "micrograms/ml."}]}
{"molecule": "Nystatin methyl ester hydrochloride", "values": [{"measurement": "Solubility in water", "setting": "[1]", "result": "> 80.0", "unit": "mg/mL"}]}
{"molecule": "Trichomycin [reference compound]", "values": [{"measurement": "Solubility in water", "setting": "[3]; [6]", "result": 0.046, "unit": "mg/mL"}, {"measurement": "Min. Inhibitory Conc.", "setting": "Saccharomyces cerevisiae; in vitro", "result": 0.030, "unit": "micrograms/ml."}]}
{"molecule": "Trichomycin methyl ester hydrochloride", "values": [{"measurement": "Min. Inhibitory Conc.", "setting": "Saccharomyces cerevisiae; in vitro", "result": 0.030, "unit": "micrograms/ml."}, {"measurement": "Solubility in water", "setting": "[1]", "result": "> 20.0", "unit": "mg/mL"}]}
{"molecule": "mediocidin methyl ester hydrochloride", "values": [{"measurement": "Solubility in water", "setting": "[1]", "result": "> 50.0", "unit": "mg/mL"}]}
